The source of these data is patent US20140106440A1, “ENHANCED ENZYMATIC CO2 CAPTURE TECHNIQUES ACCORDING TO SOLUTION PKA, TEMPERATURE AND/OR ENZYME CHARACTER” (CO2 SOLUTIONS INC., priority 2011, published 2014).

The conditions of series [1]: cited from earlier work.
Series [2] in a line: Second-order kinetic rate constant of the reaction between alkanolamine and CO2 (no enzyme). Type of series: physicochemical.
The conditions of series [3]: forward reaction with CO2; 2 kmol/m^3 MDEA solution at 298 K; cited from earlier work.

Several values for one entry are separate records, joined by “and”; a condition that tells them apart may be missing. Equal values may be shown once. Read-outs that look alike come from different tables or passages of the source.

For the compound `CN(C)CCO` [DMMEA, dimethylethanolamine], the pKa in series [1] (Table 3) is recorded as 9.2; in series [1] (Table 4), 9.2; in series [1] (Table 14), 9.22. The “k2, second-order kinetic rate constant of the reaction between amine and CO2” value (“k2, second-order kinetic rate constant” below) is listed as 19.5 m^3 kmol^−1 s^−1 in series [2] (amine concentration 1.0 kmol m^−3) and 18.8 m^3 kmol^−1 s^−1 in series [2] (amine concentration 2.0 kmol m^−3).

For the compound `CCN(CC)CCO` [DEMEA, diethylethanolamine], the “k2, second-order kinetic rate constant” value in series [2] is 33.0 m^3 kmol^−1 s^−1 and 35.5 m^3 kmol^−1 s^−1 and 33.1 m^3 kmol^−1 s^−1.

As to `O` [H2O, water], the “1st order rate constant” value in series [3] is 0.026 s⁻¹.

Consider `O` [OH^−, hydroxide], for which, in series [3], the “1st order rate constant” value was 23.8 s⁻¹ and the “2nd order rate constant” value was 8.35 m^3mol^−1s^−1.

Take `CC(O)CN(CC(C)O)CC(C)O` (stereo not shown) [TIPA, tri-isopropanolamine]: the “k2, second-order kinetic rate constant” value in series [2] is 1.02 m^3 kmol^−1 s^−1 and 0.79 m^3 kmol^−1 s^−1.

Broadly, the pKa is the negative logarithm of the acid dissociation constant.
